In patent US8557853B2, “Aryl fluoroethyl ureas acting as alpha 2 adrenergic agents” (Allergan, Inc., priority 2007, dated 2013):
Where two headings read alike, the source gives them in different places.

Assays:
Assay type in all cases: cell-based
alpha2B receptor = target: T1, alpha2B receptor (Homo sapiens, UniProt P18089); test: RSAT (Receptor Selection and Amplification Technology) assay, alpha 2B; conditions: for Alpha 2B IA: intrinsic activity: ratio of maximal effect of drug to maximal effect of standard full agonist brimonidine (UK14304)
T1 construct: expressed in transfected cells; host or cells: NIH-3T3 cells
T1 sequence (P18089 1-450): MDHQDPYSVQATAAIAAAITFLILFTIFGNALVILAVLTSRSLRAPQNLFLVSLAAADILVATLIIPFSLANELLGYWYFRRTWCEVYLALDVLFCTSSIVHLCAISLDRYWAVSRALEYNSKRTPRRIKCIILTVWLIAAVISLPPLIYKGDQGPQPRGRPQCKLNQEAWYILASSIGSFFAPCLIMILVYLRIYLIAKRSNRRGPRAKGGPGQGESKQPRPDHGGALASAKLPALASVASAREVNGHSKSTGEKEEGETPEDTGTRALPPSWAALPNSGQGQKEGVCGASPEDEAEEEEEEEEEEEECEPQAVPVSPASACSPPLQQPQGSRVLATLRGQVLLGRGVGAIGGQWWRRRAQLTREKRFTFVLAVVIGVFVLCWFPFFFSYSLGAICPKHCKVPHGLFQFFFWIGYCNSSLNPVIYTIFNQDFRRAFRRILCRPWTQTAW
Procedure: (§1) The RSAT assay measures a receptor-mediated loss of contact inhibition that results in selective proliferation of receptor-containing cells in a mixed population of confluent cells. The increase in cell number is assessed with an appropriate transfected marker gene such as ∃-galactosidase, the activity of which can be easily measured in a 96-well format. Receptors that activate the G protein, Gq, elicit this response. Alpha 2 receptors, which normally couple to Gi, activate the RSAT response when coexpressed with a hybrid Gq protein that has a Gi receptor recognition domain, called Gq/i5.
(§2) NIH-3T3 cells are plated at a density of 2×10^6 cells in 15 cm dishes and maintained in Dulbecco's modified Eagle's medium supplemented with 10% calf serum. One day later, cells are cotransfected by calcium phosphate precipitation with mammalian expression plasmids encoding p-SV-β-galactosidase (5-10 μg), receptor (1-2 μg) and G protein (1-2 μg). 40 μg salmon sperm DNA may also be included in the transfection mixture. Fresh media is added on the following day and 1-2 days later, cells are harvested and frozen in 50 assay aliquots. Cells are thawed and 100 μl added to 100 μl aliquots of various concentrations of drugs in triplicate in 96-well dishes. Incubations continue 72-96 hr at 37° C. After washing with phosphate-buffered saline, ∃-galactosidase enzyme activity is determined by adding 200 μl of the chromogenic substrate (consisting of 3.5 mM o-nitrophenyl-β-D-galactopyranoside and 0.5% nonidet P-40 in phosphate buffered saline), incubating overnight at 30° C. and measuring optical density at 420 nm. The absorbance is a measure of enzyme activity, which depends on cell number and reflects a receptor-mediated cell proliferation. The efficacy or intrinsic activity is calculated as a ratio of the maximal effect of the drug to the maximal effect of a standard full agonist for each receptor subtype. Brimonidine, also called UK14304, the chemical structure of which is shown below, is used as the standard agonist for the alpha2A, alpha2B and alpha2C receptors.

alpha2A receptor = target: T2, alpha2A receptor (Homo sapiens, UniProt P08913); test: RSAT (Receptor Selection and Amplification Technology) assay, alpha 2A; conditions: for EC50 / Alpha 2A EC50: RSAT, transfected NIH-3T3 cells, "not active" = not active at concentrations less than 10 micromolar; for Alpha 2A IA: intrinsic activity: ratio of maximal effect of drug to maximal effect of standard full agonist brimonidine (UK14304)
T2 construct: expressed in transfected cells; host or cells: NIH-3T3 cells
T2 sequence (P08913 1-465): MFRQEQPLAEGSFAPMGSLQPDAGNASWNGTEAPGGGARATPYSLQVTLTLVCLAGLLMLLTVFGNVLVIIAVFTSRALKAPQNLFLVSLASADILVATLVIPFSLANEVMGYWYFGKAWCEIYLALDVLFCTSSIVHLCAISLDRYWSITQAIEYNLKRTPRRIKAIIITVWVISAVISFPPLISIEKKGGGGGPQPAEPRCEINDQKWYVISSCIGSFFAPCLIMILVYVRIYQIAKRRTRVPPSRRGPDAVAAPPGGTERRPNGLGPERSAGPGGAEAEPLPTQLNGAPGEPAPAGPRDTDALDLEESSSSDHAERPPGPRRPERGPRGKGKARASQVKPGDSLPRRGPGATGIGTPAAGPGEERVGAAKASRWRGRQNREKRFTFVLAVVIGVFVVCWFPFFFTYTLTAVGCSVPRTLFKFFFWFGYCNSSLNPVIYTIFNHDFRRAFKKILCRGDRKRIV
Text: (§3) The aryl fluoroethyl ureas of the invention are agonists of alpha2 adrenergic receptors. […] Al, 1995, Pharmacol. Toxicol. 76, pp. 308-311 (incorporated herein by reference) and is also described below. Another reference pertinent to this assay is Conklin et al. (1993) Nature 363:274-6, Receptor Selection and Amplification Technology (RSAT) assay, also incorporated herein by reference.
as §1, §2
(§4) The results of the RSAT assay with several exemplary compounds of the invention are disclosed in Table 1 below together with the chemical structures of these compounds. “Not active” means the compounds are not active at concentrations less than 10 micromolar.

alpha2C receptor = target: T3, alpha2C receptor (Homo sapiens, UniProt P18825); test: RSAT (Receptor Selection and Amplification Technology) assay, alpha 2C; conditions: for EC50 / Alpha 2C EC50: RSAT, transfected NIH-3T3 cells, "not active" = not active at concentrations less than 10 micromolar; for Alpha 2C IA: intrinsic activity: ratio of maximal effect of drug to maximal effect of standard full agonist brimonidine (UK14304)
T3 construct: expressed in transfected cells; host or cells: NIH-3T3 cells
T3 sequence (P18825 1-462): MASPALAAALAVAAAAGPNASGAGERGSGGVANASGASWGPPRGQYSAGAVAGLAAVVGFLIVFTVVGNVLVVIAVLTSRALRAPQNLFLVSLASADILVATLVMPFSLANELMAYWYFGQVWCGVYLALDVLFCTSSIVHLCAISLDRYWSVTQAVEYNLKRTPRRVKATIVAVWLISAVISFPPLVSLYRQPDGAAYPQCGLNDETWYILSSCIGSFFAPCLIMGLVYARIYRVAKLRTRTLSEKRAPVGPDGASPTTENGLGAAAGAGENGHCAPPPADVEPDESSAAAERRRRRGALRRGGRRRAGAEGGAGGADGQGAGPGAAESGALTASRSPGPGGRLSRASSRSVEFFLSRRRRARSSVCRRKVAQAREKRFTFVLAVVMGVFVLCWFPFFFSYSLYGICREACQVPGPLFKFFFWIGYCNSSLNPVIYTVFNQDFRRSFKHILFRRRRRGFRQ
Text: as §3, §1, §2, §4

[1] = RSAT, transfected NIH-3T3 cells, "not active" = not active at concentrations less than 10 micromolar, read-out: Alpha 2B EC50

Compound | EC50 (alpha2B receptor; [1]) | Alpha 2B IA (alpha2B receptor) | EC50 (alpha2A receptor) | Alpha 2A IA (alpha2A receptor) | EC50 (alpha2C receptor) | Alpha 2C IA (alpha2C receptor) | Alpha 2A EC50 (alpha2A receptor) | Alpha 2C EC50 (alpha2C receptor) | EC50 (alpha2B receptor)
O=C(NCCF)NCc1cccc(I)c1I [Compound 13, 1-(2-fluoro-ethyl)-3-(2,3-diiodo-benzyl)-urea] | 96 nM | 0.86 | 1010 nM | 0.59 | 192 nM | 0.72 |  |  | 
Cc1c(Cl)cccc1CNC(=O)NCCF [Compound 18, 1-(3-chloro-2-methyl-benzyl)-3-(2-fluoro-ethyl)-urea] | 40 nM | 1.24 | 400 nM | 0.36 | 1380 nM | 0.94 |  |  | 
Cc1cccc(CNC(=O)NCCF)c1 [Compound 5, 1-(2-fluoro-ethyl)-3-(3-methyl-benzyl)-urea] | 88 nM | 1.26 | 980 nM | 0.48 | 876 nM | 0.74 |  |  | 
O=C(NCCF)NCc1cccc(O)c1 [Compound 42, 1-(2-fluoro-ethyl)-3-(3-hydroxy-benzyl)-urea] | 137 nM | 0.81 | 3520 nM | 0.33 | 1060 nM | 0.67 |  |  | 
O=C(NCCF)NCc1cccc(I)c1 [Compound 9, 1-(2-fluoro-ethyl)-3-(3-iodo-benzyl)-urea] | 171 nM | 0.76 | 1480 nM | 0.48 | 302 nM | 0.62 |  |  | 
COc1c(Br)cccc1CNC(=O)NCCF [Compound 19, 1-(3-bromo-2-methoxy-benzyl)-3-(2-fluoro-ethyl)-urea] | 2530 nM | 0.83 |  |  |  |  | not active | not active | 
O=C(NCCF)Nc1cccc2c1CCC2 [Compound 29, 1-(2-fluoro-ethyl)-3-indan-4-yl-urea] | 1220 nM | 0.89 | 940 nM | 0.37 | 2550 nM | 0.63 |  |  | 
COc1c(C)cccc1CNC(=O)NCCF [Compound 17, 1-(2-fluoro-ethyl)-3-(2-methoxy-3-methyl-benzyl)-urea] | 40 nM | 1.25 | 678 nM | 0.79 | 685 nM | 0.93 |  |  | 
O=C(NCCF)NCc1ccccn1 [Compound 35, 1-(2-fluoro-ethyl)-3-pyridin-2-ylmethyl-urea] |  | 0.75 |  |  | 3710 nM | 0.38 | not active |  | 1990 nM
O=C(NCCF)NCc1cccc(C(F)(F)F)c1Cl [Compound 11, 1-(2-chloro-3-trifluoromethyl-benzyl)-3-(2-fluoro-ethyl)-urea] | 106 nM | 0.9 |  |  | 1090 nM | 0.66 | not active |  | 
O=C(NCCF)NCc1cccc(F)c1 [Compound 4, 1-(3-fluoro-benzyl)-3-(2-fluoro-ethyl)-urea] | 221 nM | 1.14 |  |  | 368 nM | 0.47 | not active |  | 
O=C(NCCF)NCc1cccc(Br)c1Cl [Compound 15, 1-(3-bromo-2-chloro-benzyl)-3-(2-fluoro-ethyl)-urea] | 25 nM | 1.3 | 224 nM | 0.46 | 297 nM | 0.88 |  |  | 
Cc1cccnc1CNC(=O)NCCF [Compound 37, 1-(2-fluoro-ethyl)-3-(3-methyl-pyridin-2-ylmethyl)-urea] |  | 0.40 |  |  |  |  | not active | not active | 3540 nM
O=C(NCCF)NCc1ccccc1Br [Compound 6, 1-(2-bromo-benzyl)-3-(2-fluoro-ethyl)-urea] | 85 nM | 0.9 | 122 nM | 0.36 | 488 nM | 1.1 |  |  | 
CCc1ccccc1NC(=O)NCCF [Compound 24, 1-(2-ethyl-phenyl)-3-(2-fluoro-ethyl)-urea] | > 2000 nM | 0.82 | 2670 nM | 0.35 | > 2000 nM | 0.36 |  |  | 
O=C(NCCF)NCc1cccc2c1OCO2 [Compound 31, 1-benzo(1,3)dioxol-4-ylmethyl-3-(2-fluoro-ethyl)-urea] | 119 nM | 1.0 | > 2000 nM | 0.48 | 2020 nM | 1.2 |  |  | 
O=C(NCCF)Nc1ccc2c(c1)CCC2 [Compound 21, 1-(2-fluoro-ethyl)-3-indan-5-yl-urea] | 115 nM | 0.33 |  |  |  |  | not active | not active | 
